Source: patent US4690938A, “Anti-hypertensive agents” (University of Miami, priority 1979, dated 1987)

Experiments:
[1] = tested on: mean arterial blood pressure response to angiotensin I; experiment: Oral effectiveness: blood pressure response to angiotensin I in anesthetized rats; format: in vivo, rat; conditions: angiotensin I 400 ng/ml in 20 μl of 0.9 g % NaCl (table: 400 ng/kg); control response before drug
[2] = biological target: T1, angiotensin converting enzyme (human urinary ACE) (Homo sapiens, UniProt P12821); experiment: ACE activity assay: hydrolysis of Benzoyl-GlyHisLeu by ACE purified from human urine; format: biochemical; conditions: Benzoyl-GlyHisLeu 1×10^-4 M, pH 8.0, 37° C, read-out: I50
T1 construct: ACE purified from human urine; from tissue; host or cells: human urine
From the text: The role of ACE in the pathogenesis of hypertension has prompted a search for inhibitors of the enzyme that could act as antihypertensive drugs. See for example U.S. Pat. Nos. 3,891,616, 3,947,575, 4,052,511 and 4,053,651. […]. No. 4,046,889 to Ondetti et al., issued Sept. 6, 1977, and in scientific articles by Cushman, D. W. et al., Biochemistry 16, 5484 (1977), and by Ondetti, M. et al., Science 196, 441 (1977). […]. These factors include the source of enzyme, its purity, the substrate used and its concentration, and the composition of the assay buffer. All I50 data reported herein have been performed with the same assay system and same enzyme (human urinary ACE) and with an approximately 1/2 Km level of substrate and are therefore internally consistent. Discrepancies with data obtained by other workers may be observed. Indeed such discrepancies do exist in the literature, for unknown reasons. See, for example, the I50 values for BPP9a reported by Cushman, D. W., et al., Experientia 29, 1032 (1973) and by Dorer, F. E., et al., Biochim.Biophys.Acta 429, 220 (1976).
For most experiments described herein, the enzyme was assayed in 0.05M Hepes buffer, pH 8.0 containing 0.1M NaCl and 0.75M Na2 SO4. […]
The inhibitory potency of N^α-[ 3-(N^α -benzoylglycylthio)-2-D-L-proline in vitro was measured in the assay described in Example 1. […]

[3] = tested on: mean arterial blood pressure response to angiotensin I; experiment: Intravenous effectiveness: blood pressure response to angiotensin I in anesthetized rats; format: in vivo, rat; conditions: i.v.; angiotensin I 400 ng/kg
Method: Rats (210-290 g body weight) were fasted overnight and then anesthetized with intraperitoneal pentobarbital, 50-60 mg/kg. Tracheostomy was performed and the animals were ventilated mechanically. A cannula was inserted into a femoral vein for injection of angiotensin I, and a second cannula was inserted into a common carotid artery for direct measurement of arterial blood pressure. Heparin, 1,000 units, was injected via the femoral vein to prevent coagulation. Blood pressure was measured with a pressure transducer connected to a polygraph. The rats were injected with […] of angiotensin I in 20 μl of 0.9 g % NaCl; an amount of angiotensin I sufficient to raise mean arterial blood pressure by 38 mm Hg. After the responsiveness of a given rat to angiotensin I was established, the named compound at 20 μmol/kg (drug dissolved in 0.15 ml of H2 O plus 10 μl of 1N NaHCO3), was given via a stomach tube. At timed intervals, the effects of 400 ng/kg of angiotensin I on mean arterial blood pressure were tested. Results are shown below:
Intravenous Effectiveness of N^α -[3-(N^α -benzoylglycylthio)-2-D-methylpropanoyl)-L-proline. Anesthetized rats were prepared as described in Example 20. The animals were administered the named compound via a femoral vein in 15 μl of 0.01 N sodium bicarbonate, after the control response to 400 ng/kg of angiotensin I was measured. […]

T1 sequence (P12821 30-1232 limits assumed): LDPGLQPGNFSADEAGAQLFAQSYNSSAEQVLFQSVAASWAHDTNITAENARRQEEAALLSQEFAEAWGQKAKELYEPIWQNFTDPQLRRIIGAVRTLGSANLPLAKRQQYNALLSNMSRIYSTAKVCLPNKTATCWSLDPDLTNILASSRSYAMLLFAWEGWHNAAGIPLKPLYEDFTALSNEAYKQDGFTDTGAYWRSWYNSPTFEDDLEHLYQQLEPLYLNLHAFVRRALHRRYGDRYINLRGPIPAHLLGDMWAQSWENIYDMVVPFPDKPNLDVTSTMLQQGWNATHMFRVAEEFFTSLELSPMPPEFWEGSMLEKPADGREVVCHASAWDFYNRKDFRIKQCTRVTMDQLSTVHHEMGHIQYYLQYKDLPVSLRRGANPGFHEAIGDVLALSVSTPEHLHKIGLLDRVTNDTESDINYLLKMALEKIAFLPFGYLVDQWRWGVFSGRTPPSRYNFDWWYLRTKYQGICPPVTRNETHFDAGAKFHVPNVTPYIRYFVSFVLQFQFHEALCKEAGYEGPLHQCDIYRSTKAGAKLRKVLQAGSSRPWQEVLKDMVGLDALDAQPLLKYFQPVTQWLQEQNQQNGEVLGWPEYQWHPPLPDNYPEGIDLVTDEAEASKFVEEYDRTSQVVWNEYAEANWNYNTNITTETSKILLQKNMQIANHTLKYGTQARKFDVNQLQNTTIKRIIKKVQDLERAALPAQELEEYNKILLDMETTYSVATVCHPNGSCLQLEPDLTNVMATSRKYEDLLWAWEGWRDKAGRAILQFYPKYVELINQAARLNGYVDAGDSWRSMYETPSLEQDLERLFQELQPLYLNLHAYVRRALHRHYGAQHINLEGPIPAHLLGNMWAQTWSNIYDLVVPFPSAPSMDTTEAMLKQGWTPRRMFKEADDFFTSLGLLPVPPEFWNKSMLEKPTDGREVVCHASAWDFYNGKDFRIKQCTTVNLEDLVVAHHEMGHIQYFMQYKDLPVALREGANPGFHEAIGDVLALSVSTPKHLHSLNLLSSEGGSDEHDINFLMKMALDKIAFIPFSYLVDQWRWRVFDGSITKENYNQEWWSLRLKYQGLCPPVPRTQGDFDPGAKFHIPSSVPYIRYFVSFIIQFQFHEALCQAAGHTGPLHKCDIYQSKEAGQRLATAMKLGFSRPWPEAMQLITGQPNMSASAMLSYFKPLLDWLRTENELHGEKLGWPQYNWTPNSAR

Molecule	Increase of mean arterial blood pressure by angiotensin I [1] [mm Hg]	IC50 [2] [nM]	Blood pressure response to angiotensin I after intravenous administration (in words) [3]
angiotensin I: decapeptide angiotensin I, having the sequence AspArgValTyrlleHisProPheHisLeu (DRVYIHPFHL; Angiotensin-1; UniProt P01019 25-34, looked up)	38		
C[C@H](CSC(=O)CNC(=O)c1ccccc1)C(=O)N1CCC[C@H]1C(=O)O [Example 13, N^α -[3-(N^Δ -benzoylglycylthio)-2-D-methylpropanoyl]-L-proline]		7.5	rapid decrease of blood pressure response to angiotensin I, 400 ng/kg followed by a gradual rise to the pretreatment level of responsiveness
